Data reported in ChEMBL document CHEMBL1201862, “PubChem BioAssay data set” (2004).
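How tested: cells in 96-well plates exposed to compound for 48 hours at five concentrations. At the GI50, growth is halved.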 Active and inactive are the calls of the source. No stated cut-off is given here; in the data, active = GI50 up to about 1.1 µM and inactive = higher.

Legend:
Test in all cases: inhibition of tumour cell growth, NCI panel, 48 h
MCF7 = test system: MCF7
KM-20L2 = test system: KM-20L2
T47D = test system: T47D
MDA-MB-435 = test system: MDA-MB-435
786-0 = test system: 786-0
MDA-N = test system: MDA-N
BT-549 = test system: BT-549
DU-145 = test system: DU-145
RXF 631 = test system: RXF 631

With `O=C1C=C[C@@H](COC2OC(CO)C(O)C(O)C2O)O1` (some centres undefined) the GI50 (MCF7) was 4.46 µM (inactive).

With `COc1cc(Nc2c3ccccc3nc3ccccc23)ccc1NS(C)(=O)=O` the GI50 (KM-20L2) was 4.46 µM (inactive).

With `CCCSc1ccc2[nH]c(N3C(=O)/C(=C/c4cc(OC)c(OC)c(OC)c4)N=C3c3ccccc3)cc2c1` the GI50 (T47D) was 11 µM (inactive), the GI50 (MDA-MB-435) was 4.03 µM (inactive) and the GI50 (MCF7) was 12.6 µM (inactive). The GI50 (786-0) was 3.24 µM (inactive), the GI50 (MDA-N) was 4.88 µM (inactive) and the GI50 (BT-549) was 10.8 µM (inactive). For the same compound, the GI50 (DU-145) was 10.1 µM (inactive).

With `COc1ccc(CNc2nc3cc(C(F)(F)F)ccc3nc2C)cc1OC` the GI50 (KM-20L2) was 44.1 µM (inactive) and the GI50 (786-0) was 22 µM (inactive).

In the case of `Cc1c(C#N)c2nnn(C)c(=O)n2c1-c1ccccc1`, the GI50 (MDA-MB-435) is reported as > 100 µM (inactive), the GI50 (MCF7) is reported as 71 µM (inactive) and the GI50 (MDA-N) is reported as > 100 µM (inactive). For the same compound, the GI50 (BT-549) was 87.7 µM (inactive).

For `Cn1cc(C(=O)/C(Cl)=C(\Cl)C(=O)O)c2ccccc21`, the GI50 (KM-20L2) was > 100 µM (inactive), the GI50 (RXF 631) was > 100 µM (inactive) and the GI50 (786-0) was > 100 µM (inactive).

With `CC(C)OP(=O)(OC(C)C)/C(=N/Nc1ccc([N+](=O)[O-])cc1)NCCO` the GI50 (KM-20L2) was 85.7 µM (inactive) and the GI50 (786-0) was > 100 µM (inactive).

`COc1cccc(N/C(C)=C2/CCOC2=O)c1` was tested, and the GI50 (T47D) was > 10 µM (inactive), the GI50 (MDA-MB-435) was > 10 µM (inactive) and the GI50 (MCF7) was > 10 µM (inactive). For the same compound, the GI50 (MDA-N) was > 10 µM (inactive) and the GI50 (DU-145) was > 10 µM (inactive).

With `O=C(CCl)NC(Cc1ccc(F)cc1)C(=O)O` (centres undefined) the GI50 (KM-20L2) was > 100 µM (inactive) and the GI50 (MCF7) was > 100 µM (inactive).

With `Cc1sc(Cc2ccccc2)nc1-c1ccc(N)cc1` the GI50 (MDA-MB-435) was 17.7 µM (inactive), the GI50 (MCF7) was 19.5 µM (inactive) and the GI50 (BT-549) was 28.2 µM (inactive).

`CC(C)(C)CI` was tested, and the GI50 (KM-20L2) was 32.2 µM (inactive) and the GI50 (RXF 631) was 32.3 µM (inactive).

`COc1cc(Nc2nc3cc(C(F)(F)F)ccc3n3cccc23)cc(OC)c1OC` was tested, and the GI50 (T47D) was 2.96 µM (inactive), the GI50 (MDA-MB-435) was 9.46 µM (inactive) and the GI50 (MCF7) was > 100 µM (inactive). The GI50 (MDA-N) was > 100 µM (inactive), the GI50 (BT-549) was 89.5 µM (inactive) and the GI50 (DU-145) was > 100 µM (inactive).

With `Cc1c2ccnc(C(F)(F)F)c2cc2c1[nH]c1ccccc12` the GI50 (KM-20L2) was > 125 µM (inactive) and the GI50 (MCF7) was 17.1 µM (inactive).

For `CCCn1c(CN(Cc2nc3ccccc3n2CCC)Cc2nc3ccccc3n2CCC)nc2ccccc21`, the GI50 (T47D) was 2.55 µM (inactive), the GI50 (MDA-MB-435) was 3.27 µM (inactive) and the GI50 (MCF7) was 0.973 µM (active). For the same compound, the GI50 (MDA-N) was 2.26 µM (inactive), the GI50 (BT-549) was 5.71 µM (inactive) and the GI50 (DU-145) was 7.83 µM (inactive).

In the case of `O=S1(=O)CS(=O)(=O)OCCCO1`, the GI50 (T47D) is reported as > 100 µM (inactive), the GI50 (MDA-MB-435) is reported as > 100 µM (inactive) and the GI50 (MCF7) is reported as 97.1 µM (inactive). The GI50 (786-0) was > 100 µM (inactive), the GI50 (MDA-N) was > 100 µM (inactive) and the GI50 (DU-145) was > 100 µM (inactive).

`CC1(C)CCCC2(C)[C@@H]1CC[C@]13C[C@](C)(CC[C@@H]21)[C@@H]3CO` (some centres undefined) was tested, and the GI50 (KM-20L2) was > 100 µM (inactive) and the GI50 (RXF 631) was > 100 µM (inactive).
